The supplement of paper PMC13380429

Assays:
[1] = test system: A549-ACE2 infected with SARS-CoV-2; assay: SARS-CoV-2 infection rate relative to DMSO; higher = more infection; settings: 24 h
A549-ACE2 [2] = assay: drug-induced phospholipidosis relative to tamoxifen; higher = more phospholipidosis
[3] = test system: A549-ACE2 infected with SARS-CoV-2; assay: cell count relative to DMSO; higher = less toxic; settings: 24 h
HepG2 [4] = assay: drug sensitivity score (DSS) for viability; higher = more toxic; extreme values may be limits of the assay; settings: 72 h
Vero E6 [5] = assay: as above; settings: 72 h
Caco-2 [6] = assay: as above; settings: 72 h
U2OS [7] = assay: as above; settings: 72 h
Calu-3 [8] = assay: as above; settings: 72 h
A549-ACE2 [9] = assay: phospholipidosis EC50; higher = less potent phospholipidosis inducer
Vero E6 [10] = assay: relative viability EC50 (midpoint between 100% and the lowest measured viability); higher = less toxic; settings: 72 h
U2OS [11] = assay: as above; settings: 72 h
Calu-3 [12] = assay: as above; settings: 72 h
HepG2 [13] = assay: cell viability relative to DMSO; higher = less toxic; settings: 72 h
Vero E6 [14] = assay: as above; settings: 72 h
Caco-2 [15] = assay: as above; settings: 72 h
U2OS [16] = assay: as above; settings: 72 h
Calu-3 [17] = assay: as above; settings: 72 h
[18] = test system: A549-ACE2 infected with SARS-CoV-2; assay: morphology score (similarity to uninfected cells); higher = more like uninfected cells; settings: 24 h
HepG2 [19] = assay: relative viability EC50 (midpoint between 100% and the lowest measured viability); higher = less toxic; settings: 72 h
Caco-2 [20] = assay: as above; settings: 72 h

CC(NCCC(c1ccccc1)c1ccccc1)c1ccccc1 (stereo not given) [fendiline]
Settings	SARS-CoV-2 infection rate [%]	cell count [%]	cell viability [%]	morphology score	phospholipidosis EC50 [µM]
A549-ACE2 [9], 24 h	–	–	–	–	4.59
A549-ACE2 [9], 48 h	–	–	–	–	6.53
A549-ACE2 [9], 72 h	–	–	–	–	6.61
Caco-2 [15], 1 nM	–	–	97.6	–	–
Caco-2 [15], 10 nM	–	–	99.8	–	–
Caco-2 [15], 100 nM	–	–	93.9	–	–
Caco-2 [15], 1000 nM	–	–	98.1	–	–
Caco-2 [15], 10000 nM	–	–	67.6	–	–
Calu-3 [17], 1 nM	–	–	91.6	–	–
Calu-3 [17], 10 nM	–	–	96.3	–	–
Calu-3 [17], 100 nM	–	–	103	–	–
Calu-3 [17], 1000 nM	–	–	102	–	–
Calu-3 [17], 10000 nM	–	–	46.7	–	–
HepG2 [13], 1 nM	–	–	110	–	–
HepG2 [13], 10 nM	–	–	97.8	–	–
HepG2 [13], 100 nM	–	–	102	–	–
HepG2 [13], 1000 nM	–	–	94.2	–	–
HepG2 [13], 10000 nM	–	–	70.1	–	–
U2OS [16], 1 nM	–	–	99.2	–	–
U2OS [16], 10 nM	–	–	106	–	–
U2OS [16], 100 nM	–	–	93.1	–	–
U2OS [16], 1000 nM	–	–	99.6	–	–
U2OS [16], 10000 nM	–	–	84.2	–	–
Vero E6 [14], 1 nM	–	–	96.5	–	–
Vero E6 [14], 10 nM	–	–	98.6	–	–
Vero E6 [14], 100 nM	–	–	97.5	–	–
Vero E6 [14], 1000 nM	–	–	99.4	–	–
Vero E6 [14], 10000 nM	–	–	88.9	–	–
[1], 0.3 µM	100	–	–	–	–
[1], 3 µM	47	–	–	–	–
[1], 10 µM	13	–	–	–	–
[1], 30 µM	45	–	–	–	–
[3], 0.3 µM	–	98	–	–	–
[3], 3 µM	–	110	–	–	–
[3], 10 µM	–	119	–	–	–
[3], 30 µM	–	43	–	–	–
[18], 0.3 µM	–	–	–	-0.14	–
[18], 3 µM	–	–	–	0.77	–
[18], 10 µM	–	–	–	0.9	–
[18], 30 µM	–	–	–	0.08	–

drug-induced phospholipidosis [%], A549-ACE2 [2]
Settings	0.3 µM	0.833333 µM	3.33333 µM	6.66667 µM	10 µM	30 µM
24 h	3.14	1.17	27.5	62.8	85	85.8
48 h	2.47	2.24	19.7	62.3	88.8	–
72 h	1.95	-3.79	18.1	60.3	87.3	–

Settings	drug sensitivity score	relative viability EC50 [µM]
Caco-2 [6]	1.7	–
Calu-3 [8]	2.6	–
Calu-3 [12]	–	3.42
HepG2 [4]	2.2	–
U2OS [7]	0.3	–
U2OS [11]	–	> 10
Vero E6 [5]	0	–
Vero E6 [10]	–	> 10

CN1CCCN(C(c2ccccc2)c2ccc(Cl)cc2)CC1 (stereo not given) [homochlorcyclizine]
Settings	SARS-CoV-2 infection rate [%]	cell count [%]	cell viability [%]	morphology score	phospholipidosis EC50 [µM]
A549-ACE2 [9], 24 h	–	–	–	–	6.4
A549-ACE2 [9], 48 h	–	–	–	–	7.14
A549-ACE2 [9], 72 h	–	–	–	–	10.5
Caco-2 [15], 1 nM	–	–	97.5	–	–
Caco-2 [15], 10 nM	–	–	94.7	–	–
Caco-2 [15], 100 nM	–	–	90.5	–	–
Caco-2 [15], 1000 nM	–	–	99.6	–	–
Caco-2 [15], 10000 nM	–	–	101	–	–
Calu-3 [17], 1 nM	–	–	96.8	–	–
Calu-3 [17], 10 nM	–	–	94.3	–	–
Calu-3 [17], 100 nM	–	–	100	–	–
Calu-3 [17], 1000 nM	–	–	102	–	–
Calu-3 [17], 10000 nM	–	–	99.3	–	–
HepG2 [13], 1 nM	–	–	98.7	–	–
HepG2 [13], 10 nM	–	–	103	–	–
HepG2 [13], 100 nM	–	–	104	–	–
HepG2 [13], 1000 nM	–	–	108	–	–
HepG2 [13], 10000 nM	–	–	79.6	–	–
U2OS [16], 1 nM	–	–	99.8	–	–
U2OS [16], 10 nM	–	–	95.7	–	–
U2OS [16], 100 nM	–	–	104	–	–
U2OS [16], 1000 nM	–	–	99.2	–	–
U2OS [16], 10000 nM	–	–	97.1	–	–
Vero E6 [14], 1 nM	–	–	97.9	–	–
Vero E6 [14], 10 nM	–	–	99.5	–	–
Vero E6 [14], 100 nM	–	–	95.2	–	–
Vero E6 [14], 1000 nM	–	–	96.4	–	–
Vero E6 [14], 10000 nM	–	–	102	–	–
[1], 0.3 µM	97	–	–	–	–
[1], 3 µM	51	–	–	–	–
[1], 10 µM	20	–	–	–	–
[1], 30 µM	19	–	–	–	–
[3], 0.3 µM	–	102	–	–	–
[3], 3 µM	–	117	–	–	–
[3], 10 µM	–	113	–	–	–
[3], 30 µM	–	95	–	–	–
[18], 0.3 µM	–	–	–	0.01	–
[18], 3 µM	–	–	–	0.71	–
[18], 10 µM	–	–	–	0.84	–
[18], 30 µM	–	–	–	0.53	–

drug-induced phospholipidosis [%], A549-ACE2 [2]
Settings	0.3 µM	0.833333 µM	3.33333 µM	6.66667 µM	10 µM	30 µM
24 h	1.65	3.27	20.6	54.6	81	102
48 h	3.21	3.5	22.2	49.2	82.5	107
72 h	7.01	3.95	24.7	47.4	80.1	134

Settings	drug sensitivity score	relative viability EC50 [µM]
Caco-2 [6]	0	–
Caco-2 [20]	–	> 10
Calu-3 [8]	0	–
Calu-3 [12]	–	> 10
HepG2 [4]	0.4	–
HepG2 [19]	–	> 10
U2OS [7]	0	–
U2OS [11]	–	> 10
Vero E6 [5]	0	–
Vero E6 [10]	–	> 10

OCCN1C[C@H](O)[C@@H](O)[C@H](O)[C@H]1CO [miglitol]
Settings	SARS-CoV-2 infection rate, [1] [%]	cell count, [3] [%]	cell viability, Caco-2 [15] [%]	cell viability, Calu-3 [17] [%]	cell viability, HepG2 [13] [%]	cell viability, U2OS [16] [%]	morphology score, [18]
1 nM	–	–	98.8	97.8	94.6	105	–
10 nM	–	–	99.2	95.7	114	99	–
100 nM	–	–	96.1	95.1	89.6	102	–
0.3 µM	94	106	–	–	–	–	0.36
1000 nM	–	–	101	110	103	98.5	–
3 µM	102	100	–	–	–	–	0.01
10 µM	103	100	–	–	–	–	0.02
10000 nM	–	–	94.7	96.2	101	103	–
30 µM	111	89	–	–	–	–	-0.07

drug-induced phospholipidosis [%], A549-ACE2 [2]
Settings	0.3 µM	0.833333 µM	3.33333 µM	6.66667 µM	10 µM	30 µM
24 h	3.38	-3.48	-1.06	-1.04	-2.08	-1.27
48 h	2.53	-2.84	1.36	1.25	2.47	2.29
72 h	3.37	-2.2	1.06	-0.466	0.978	2.7

Settings	drug sensitivity score	relative viability EC50 [µM]
Caco-2 [6]	0	–
Caco-2 [20]	–	> 10
Calu-3 [8]	0	–
Calu-3 [12]	–	> 10
HepG2 [4]	0	–
HepG2 [19]	–	> 10
U2OS [7]	0	–
U2OS [11]	–	> 10
